The record followed here is article PMC6299220 (mBio, 2018).

Assay [1] has as its system M. tuberculosis DRM167-16x3 (KasA V123A). It counts as cell-based, Mycobacterium tuberculosis.
Assay [2] relates to M. tuberculosis DRM167-16x6 (KasA I122S). It counts as cell-based, Mycobacterium tuberculosis.
In assay [3] the test system is M. tuberculosis DRM167-8x3 (KasA I145T). It counts as cell-based, Mycobacterium tuberculosis.
The subject of assay [4] is M. tuberculosis DRM167-8x2 (KasA A119T). Type of assay: cell-based, Mycobacterium tuberculosis.
For assay [5], the system named is M. tuberculosis DRM167-32x2 (KasA P206T). It counts as cell-based, Mycobacterium tuberculosis.
The subject of assay [6] is M. tuberculosis DRM167-8x6 (KasA M213L). Type of assay: cell-based, Mycobacterium tuberculosis.
Assay [7] relates to M. tuberculosis DRM167-32x11 (KasA G240S). It counts as cell-based, Mycobacterium tuberculosis.
For assay [8], the system named is mycolic acid biosynthesis in M. tuberculosis DRM167-32x2 (KasA P206T). Type of assay: cell-based, Mycobacterium tuberculosis.
The test system of a further assay is M. tuberculosis TDR116. Description: microbe, parasite or virus in culture. Type of assay: cell-based. To be noted: Mycobacterium tuberculosis.
The subject of a further assay is M. tuberculosis TDR31. Nature of the assay: microbe, parasite or virus in culture. The settings on record: Mycobacterium tuberculosis. It counts as cell-based.
The test system of another assay is M. tuberculosis mc^24914. Nature of the assay: microbe, parasite or virus in culture. Type of assay: cell-based. The settings on record: Mycobacterium tuberculosis.
The next assay relates to M. tuberculosis DRM8.3. Description: microbe, parasite or virus in culture. Type of assay: cell-based. To be noted: Mycobacterium tuberculosis.
For another assay, the system named is M. tuberculosis TDR36. Description: microbe, parasite or virus in culture. It counts as cell-based. To be noted: Mycobacterium tuberculosis.
The next assay deals with M. tuberculosis DRM5. Nature of the assay: microbe, parasite or virus in culture. It counts as cell-based. To be noted: Mycobacterium tuberculosis.

In brackets after ≈: the same amount, converted by molar mass.

With `COc1nc2ccc(Br)cc2cc1[C@@H](c1ccccc1)[C@@](O)(CCN(C)C)c1cccc2ccccc12` [BDQ, bedaquiline], the MIC amounted to 0.5 µM (≈ 0.278 µg/mL) in assay [1]; 0.5 µM (≈ 0.278 µg/mL) in assay [2]; 1 µM (≈ 0.556 µg/mL) in assay [3]; 0.5 µM (≈ 0.278 µg/mL) in assay [4]; 0.12 µM (≈ 0.0667 µg/mL) in [5]; 0.5 µM (≈ 0.278 µg/mL) in assay [6]. Moreover, in assay [7], the MIC amounted to 0.25 µM (≈ 0.139 µg/mL).
For the molecule `CCCCS(=O)(=O)Nc1ccc2cnn(C)c2c1` [DG167, N-(1-Methyl-1H-indazol-6-yl)butane-1-sulfonamide], in assay [8], the “inhibition of mycolic acid biosynthesis” value is reported as “resistant to DG167-mediated inhibition of mycolic acid biosynthesis”. Further, the MIC in assay [1] amounted to 1.56 µM (≈ 0.417 µg/mL); in assay [2], 50 µM (≈ 13.4 µg/mL); in assay [3] it was 6.25 µM (≈ 1.67 µg/mL); against M. tuberculosis TDR116 it was 0.2 µM (≈ 0.0535 µg/mL); in assay [4], 50 µM (≈ 13.4 µg/mL); against M. tuberculosis TDR31, 0.2 µM (≈ 0.0535 µg/mL). Also, the MIC was 0.78 µM (≈ 0.209 µg/mL) in the assay on M. tuberculosis mc^24914, above 100 µM in [5], 3.12 µM (≈ 0.834 µg/mL) in [6] and 100 µM (≈ 26.7 µg/mL) in assay [7]. Also, in the assay with M. tuberculosis, the “frequency of resistant mutants” value is listed as 1 × 10^−7.
For `CC[C@@H](CO)NCCN[C@@H](CC)CO` [EMB, ethambutol], the MIC in assay [1], in [2], in [3], in [4], in [5] and in [6] was 1.56 µM (≈ 0.319 µg/mL) each time. For the same molecule, in assay [7], the MIC was 1.56 µM (≈ 0.319 µg/mL).
With `CCc1cc(C(N)=S)ccn1` [ETH, ethionamide], the MIC was determined as 25 µM (≈ 4.16 µg/mL) in [1]; 12.5 µM (≈ 2.08 µg/mL) in [2]; 25 µM (≈ 4.16 µg/mL) in [3]; 12.5 µM (≈ 2.08 µg/mL) in assay [4]; 12.5 µM (≈ 2.08 µg/mL) in assay [5]; 25 µM (≈ 4.16 µg/mL) in assay [6]. This molecule returned an MIC in assay [7] of 12.5 µM (≈ 2.08 µg/mL).
In the case of `NNC(=O)c1ccncc1` [INH, isoniazid], the MIC in [1] is 0.38 µM (≈ 0.0521 µg/mL); in [2], 0.19 µM (≈ 0.0261 µg/mL); in assay [3], 0.38 µM (≈ 0.0521 µg/mL); in the assay on M. tuberculosis TDR116 it was above 12 µM; in [4], 0.38 µM (≈ 0.0521 µg/mL); with M. tuberculosis DRM8.3, 0.4 µM (≈ 0.0549 µg/mL). Further, the MIC in the assay with M. tuberculosis TDR31 was above 12 µM; against M. tuberculosis mc^24914, 1.6 µM (≈ 0.219 µg/mL); against M. tuberculosis TDR36, above 12 µM; in the assay with M. tuberculosis DRM5 it was 0.4 µM (≈ 0.0549 µg/mL); in assay [5] it was 0.19 µM (≈ 0.0261 µg/mL); in assay [6] it was 0.38 µM (≈ 0.0521 µg/mL). Further, the MIC in assay [7] came out at 0.19 µM (≈ 0.0261 µg/mL).
Turning to `COc1c(N2C[C@@H]3CCCN[C@@H]3C2)c(F)cc2c(=O)c(C(=O)O)cn(C3CC3)c12` [Moxi, moxifloxacin], the MIC in assay [1], in [2], in [3], in assay [4], in assay [5] and in assay [6] was 0.03 µM (≈ 0.012 µg/mL) in each case. In assay [7], this molecule yielded an MIC of 0.03 µM (≈ 0.012 µg/mL).
Consider `O=[N+]([O-])c1cn2c(n1)OC[C@@H](OCc1ccc(OC(F)(F)F)cc1)C2` [PA824], for which the MIC in assay [1], in assay [2], in [3], in [4], in assay [5] and in [6] was 0.1 µM (≈ 0.0359 µg/mL) each time. The molecule also gave an MIC in [7] of 0.1 µM (≈ 0.0359 µg/mL).
Turning to `CO[C@H]1/C=C/O[C@@]2(C)Oc3c(C)c(O)c4c(O)c(c(/C=N/N5CCN(C)CC5)c(O)c4c3C2=O)NC(=O)/C(C)=C\C=C\[C@H](C)[C@H](O)[C@@H](C)[C@@H](O)[C@@H](C)[C@H](OC(C)=O)[C@@H]1C` [RIF, rifampin], the MIC worked out at 0.001 µM (≈ 0.000823 µg/mL) in assay [1]; 0.001 µM (≈ 0.000823 µg/mL) in [2]; 0.002 µM (≈ 0.00165 µg/mL) in [3]; 0.001 µM (≈ 0.000823 µg/mL) in [4]; 0.001 µM (≈ 0.000823 µg/mL) in assay [5]; 0.001 µM (≈ 0.000823 µg/mL) in assay [6]. In assay [7], the MIC is recorded as 0.001 µM (≈ 0.000823 µg/mL).
On to `CC(C)=CCC/C(C)=C/CNCCNC1C2CC3CC(C2)CC1C3` (centres unmarked) [SQ109], for which the MIC amounted to 0.8 µM (≈ 0.264 µg/mL) in [1]; 0.4 µM (≈ 0.132 µg/mL) in [2]; 0.8 µM (≈ 0.264 µg/mL) in [3]; 0.8 µM (≈ 0.264 µg/mL) in assay [4]; 0.4 µM (≈ 0.132 µg/mL) in assay [5]; 0.4 µM (≈ 0.132 µg/mL) in [6]. Further, in assay [7], the MIC was found to be 0.4 µM (≈ 0.132 µg/mL).
